Test results: patent EP4759810A1, “PROTAC TARGETING BCL-XL PROTEIN AND USE THEREOF” (BEIJING SUNCELL BIO-MEDICAL CO., LTD., priority 2023, dated 2025)
Where two headings read alike, the source gives them in different places.

Columns and labels:
Molt-4 cells [1] = assay: Molt-4 cell killing activity test (CCK-8); assay type: cell-based; settings: for EC50: Homo sapiens; for killing Molt-4 cells at different concentrations (Figure 1), in words: 0.001-3 µM, comparison with control molecules
Procedure: (§1) Molt-4 cells were cultured and amplified in 10 cm dishes by using RPMI-1640 medium supplemented with 10% fetal bovine serum. Actively growing and healthy Molt-4 cells were collected, centrifuged at 1000 rpm for 5 minutes, and after removing the supernatant, the cells were resuspended in fresh RPMI-1640 medium containing 10% fetal bovine serum. Cell counting was then performed. The cell density was adjusted to 120,000 cells per milliliter, and 100 µL of the cell suspension was added to each well of a 96-well transparent cell culture plate. It was noted that the edge wells of the 96-well plate were not used for testing; and 300 µL of PBS alone was added to these wells to reduce medium evaporation.
The small molecule compounds to be tested for activity were prepared. A series of small molecule concentration gradients (0.001, 0.003, 0.01, 0.03, 0.1, 0.3, 1, and 3 µM) were pre-set, and a series of 2× drug dilutions for the above concentrations were prepared in RPMI-1640 medium containing 10% fetal bovine serum. 100 µL of the above medium containing the gradient concentrations of the drug was added to each well of a 96-well plate pre-seeded with cells, so that the final drug concentration in each well was the pre-set concentration gradient. Three replicate wells were used for each tested drug concentration. The 96-well plate was placed back in a 37°C incubator, and the cell viability was measured after three days.
The plate was taken out three days after adding the drugs, and 100 µL of pre-prepared CCK-8 working solution was added to each well. The CCK-8 working solution was obtained through diluting a CCK-8 stock solution (C0041, Beyotime) by 10-fold volumn with a serum-free RPMI-1640 medium. The 96-well plates with the added CCK-8 working solution were placed back in the 37°C incubator and incubated for 0.5-2 hours. The plates were then taken out, and the absorbance value (OD value) of each well was measured at a wavelength of 450 nm, and the cell viability in each experimental group was calculated according to the following formula: Relative cell viability (%) = […] × 100%.

Molt-4 cells [2] = assay: Detection of E3 enzyme-dependence: Molt-4 cell killing with or without pomalidomide (CCK-8); assay type: cell-based; settings: 10 µM pomalidomide, Figure 2
Procedure: as §1, with “Actively” for “Molt-4 cells were cultured and amplified in 10 cm dishes by using RPMI-1640 medium supplemented with 10% fetal bovine serum. Actively”, “testing,” for “testing;”
Molt-4 cells were plated in duplicate according to the number of the tested small molecules, so as to test the effects with and without the addition of pomalidomide (a competitive ligand specific for E3 ligase), in which one half of the parallel cells was added 10 µM pomalidomide. A series of small molecule concentration gradients (0.001, 0.003, 0.01, 0.03, 0.1, 0.3, 1, and 3 µM) were pre-set, and a series of 2× drug dilutions for the above concentrated were prepared in DMEM medium containing 10% fetal bovine serum. 100 µL of the above DMEM medium containing the gradient concentrations of the drug was added to 96-well plates that have been pre-plated with cells, so that the final drug concentration in each well was the pre-set series of concentrations respectively. Three replicate wells were used for each test drug concentration. The 96-well plates were placed back in a 37°C incubator, and the cell viability was detected after three days.
Cell viability after drug treatment was detected by using the CCK-8 method: three days after adding the drugs, the plates were taken out, and the supernatant was discarded. Then, 100 µL of pre-prepared CCK-8 working solution was added to each well. The CCK-8 working solution was obtained through diluting a CCK-8 stock solution (C0041, Beyotime) by 10-fold volumn with a serum-free DMEM culture medium. The 96-well plates with the added CCK-8 working solution were placed back in the 37°C incubator and incubated for 0.5-2 hours. The plates were then taken out, and the absorbance value (OD value) of each well was measured at a wavelength of 450 nm. The cell viability in each experimental group was calculated according to the following formula: Relative cell viability (%) = (Blank control group - Experimental group) / Blank control group × 100%.

HEF cells = assay: Senescent cell killing activity test, HEF cell model (CCK-8); assay type: cell-based, human; settings: for toxicity on normal non-senescent HEF cells: higher concentration (25 µM)
Procedure: To avoid replication of the induced senescent cells, low-passage proliferating HEF cells (<10 passages), MRC5 cells (<6 passages), and BJ cells (<10 passages) were used as normal controls. For chemical drug induced senescence, HEF cells were treated with 10 µM etoposide (Selleck, S1225) for 36-48 hours, MRC5 cells were treated with 5 µM bleomycin (Selleck, S1225) for 72 hours, and BJ cells were treated with 10 µg/mL bleomycin for 72 hours. Three days after the treatment, the cells were subcultured in fresh culture medium at a 1:3 ratio for 72 hours before further analysis and use.
Non-senescent and induced-senescent HEF cells, non-senescent and induced-senescent MRC5 cells, and non-senescent and induced-senescent BJ cells were respectively digested with trypsin, and centrifuged at 1000 rpm for 5 minutes. Then, the supernatant was removed, and the cells were resuspended in fresh DMEM culture medium containing 10% fetal bovine serum for counting. The cell density was adjusted so that the non-senescent cell density was 4000 cells/100 µL and the senescent cell density was 7000 cells/100 µL. 100 µL of the cell suspension was added to each well of a 96-well transparent cell culture plate. It was noted that the edge wells of the 96-well plate were not used as testing wells, and 300 µL of PBS alone was added to these wells to reduce evaporation of the culture medium. The 96-well plates with the well-plated cells were placed back in a 37°C incubator for overnight culture until the cells adhered. On the next day, the small molecule compounds to be tested were prepared and added after the cells had adhered.
A series of small molecule concentration gradients (0.01, 0.03, 0.1, 0.3, 1, 3, 10, and 25 µM) were pre-set, and a series of 2× drug dilutions for the above concentrations were prepared in DMEM culture medium containing 10% fetal bovine serum. 100 µL of the above DMEM culture medium containing the gradient concentrations of the drug was added to each well of the 96-well plate that had been well-plated with cells, so that the final drug concentration in each well was the pre-set series of concentrations. Three replicate wells were used for each test drug concentration. The 96-well plates were placed back in a 37°C incubator, and cell viability was measured after three days.
Three days after adding the drug, the plates were taken out, and the supernatant was discarded. 100 µL of pre-prepared CCK-8 working solution was added to each well. The CCK-8 working solution was obtained through diluting a CCK-8 stock solution (C0041, Beyotime) with a serum-free DMEM culture medium by 10-fold volumn. The 96-well plates containing the CCK-8 working solution were placed back in the 37°C incubator and incubated for 0.5-2 hours. The plates were then taken out, and the absorbance value (OD value) of each well was measured at a wavelength of 450 nm. The cell viability in each experimental group was calculated according to the following formula: Relative cell viability (%) = (Blank control group - Experimental group) / Blank control group × 100%.

Bcl-xL protein = target: T1, Bcl-xL protein (Homo sapiens, UniProt Q07817); assay: Degradation experiment of Bcl-xL target protein (Western blot in Molt-4 cells); assay type: cell-based; settings: 100 nM, 0, 2, 6, 16 h, GAPDH internal control, Figure 4
T1 construct: host or cells: Molt-4 cells
Procedure: Actively growing and healthy Molt-4 cells were subcultured into a fresh RPMI-1640 medium containing 10% fetal bovine serum, and each PROTAC molecule was added thereto at a final concentration of 100 nM. After drug treatment for the specified times (0, 2, 6, and 16 hours), the cells were collected, the supernatant was discarded by centrifugation, and the cells were washed twice with pre-cooled PBS buffer. Total protein was extracted with a lysis buffer (Servicebio, G2002-100ML), and the protein concentration was normalized by using a BCA protein quantification kit (Servicebio, G2026). Protein samples were mixed with a protein-loading buffer and incubated at 95°C for 5 minutes. Western blotting experiments were performed by using the following antibodies: Bcl-xL (Abcam, catalog number ab32370), diluted at 1:500; GAPDH antibody (Servicebio, catalog number GB15004), diluted at 1:1000; and horseradish peroxidase-conjugated goat anti-rabbit secondary antibody (Servicebio, catalog number GB23303), diluted at 1:5000.

[3] = 72 h, Molt-4 cells, three days, CCK-8, read-out: EC50 (Molt-4)
[4] = Bcl-xL-positive Molt-4 cells, read-out: cellular activity / killing activity (Molt-4 cells)

T1 sequence (Q07817 whole entry): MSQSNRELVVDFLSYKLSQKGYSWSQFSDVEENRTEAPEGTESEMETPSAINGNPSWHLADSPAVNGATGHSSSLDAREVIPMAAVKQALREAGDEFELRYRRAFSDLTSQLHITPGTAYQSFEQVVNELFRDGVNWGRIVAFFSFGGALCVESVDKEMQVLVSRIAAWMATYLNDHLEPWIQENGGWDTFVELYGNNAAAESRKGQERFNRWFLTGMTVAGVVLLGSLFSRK

Compound	EC50 (Molt-4 cells [1]; [3])	cell killing activity after addition of pomalidomide (+poma) compared to without (-poma) (Molt-4 cells [2])	toxicity on normal non-senescent HEF cells (HEF cells)	degradation of the Bcl-xL protein (Bcl-xL protein)	EC50 (Molt-4 cells [1]; [4])	killing Molt-4 cells at different concentrations (Figure 1), in words (Molt-4 cells [1])	killing senescent HEF cells (HEF cells; etoposide-induced senescent vs normal HEF cells, Figures 3A-3F)
CC1(C)CCC(c2ccc(Cl)cc2)=C(CN2CCN(c3ccc(C(=O)NS(=O)(=O)c4ccc(N[C@H](CCN5CCOCC5)CSc5ccccc5)c(S(=O)(=O)C(F)(F)F)c4)cc3)CC2)C1 [ABT-263, reference compound]	100 to 1000 nM	only slightly affected	toxic killing effects on normal non-senescent HEF cells	–	–	–	–
Cc1ncsc1-c1ccc([C@H](C)NC(=O)[C@@H]2C[C@@H](O)CN2C(=O)[C@@H](NC(=O)CN2CCN(CC#Cc3ccc(OCCCc4ccc(N5CCc6cccc(C(=O)Nc7nc8ccccc8s7)c6C5)nc4C(=O)O)c(F)c3)CC2)C(C)(C)C)cc1 [APH1]	10 to 100 nM	–	–	had the ability to degrade the Bcl-xL protein	–	–	–
Cc1cc([C@H](C(=O)N2C[C@H](O)C[C@H]2C(=O)N[C@@H](CC(=O)N2CCC(CN3CCN(CC#Cc4ccc(OCCCc5ccc(N6CCc7cccc(C(=O)Nc8nc9ccccc9s8)c7C6)nc5C(=O)O)c(F)c4)CC3)CC2)c2ccc(-c3scnc3C)cc2)C(C)C)on1 [APH7]	10 to 100 nM	–	–	had the ability to degrade the Bcl-xL protein	–	–	–
Cc1cc([C@H](C(=O)N2C[C@H](O)C[C@H]2C(=O)N[C@@H](CC(=O)N2CCC(CCN3CCN(CC#Cc4ccc(OCCCc5ccc(N6CCc7cccc(C(=O)Nc8nc9ccccc9s8)c7C6)nc5C(=O)O)c(F)c4)CC3)CC2)c2ccc(Cl)cc2)C(C)C)on1 [APH105]	< 10 nM	–	–	had the ability to degrade the Bcl-xL protein	< 10 nM	–	–
CC(C)(C)[C@H](NC(=O)C1(F)CC1)C(=O)N1C[C@H](O)C[C@H]1C(=O)N[C@@H](CC(=O)N1CCC(CCN2CCN(CC#Cc3ccc(OCCCc4ccc(N5CCc6cccc(C(=O)Nc7nc8ccccc8s7)c6C5)nc4C(=O)O)c(F)c3)CC2)CC1)c1ccc(Cl)cc1 [APH106]	10 to 100 nM	–	–	had the ability to degrade the Bcl-xL protein	–	–	–
CS(=O)(=O)NC(=O)c1nc(N2CCc3cccc(C(=O)Nc4nc5ccccc5s4)c3C2)ccc1CCCOc1ccc(C#CCN2CCN(CC3CCN(c4ccc(N5CCC(=O)NC5=O)cc4)CC3)CC2)cc1F [APQ10-2]	< 10 nM	significantly reduced cell killing activity	–	had the ability to degrade the Bcl-xL protein	< 10 nM	comparable to A-1331852	–
O=C1CCN(c2cc(F)c(N3CCN(CC#Cc4ccc(OCCCc5ccc(N6CCc7cccc(C(=O)Nc8nc9ccccc9s8)c7C6)nc5C(=O)O)c(F)c4)CC3)cc2F)C(=O)N1 [APQ904]	< 10 nM	significantly reduced cell killing activity	–	had the ability to degrade the Bcl-xL protein	< 10 nM	comparable to A-1331852	–
O=C1CCC(N2C(=O)c3cccc(NCCOCCOCCOCCOCCN4CCN(CC#Cc5ccc(OCCCc6ccc(N7CCc8cccc(C(=O)Nc9nc%10ccccc%10s9)c8C7)nc6C(=O)O)c(F)c5)CC4)c3C2=O)C(=O)N1 (stereo not drawn) [BF4]	10 to 100 nM	significantly reduced cell killing activity	no toxicity on normal non-senescent HEF cells	had the ability to degrade the Bcl-xL protein	–	–	efficiently and selectively kill senescent HEF cells
